Square brackets hold non-standard residues; d marks the D form. Peptide text beside a SMILES is read from it. Ala(indol-4-yl) = N[C@@H](Cc1cccc2[nH]ccc12)C(=O)O; NMeR = CN[C@@H](CCCNC(=N)N)C(=O)O; Tle = CC(C)(C)[C@H](N)C(=O)O; Dab = NCC[C@H](N)C(=O)O
How the values were obtained:
intact rabbit cornea = assay: In vitro cytotoxicity study, percentage of living cells; format: cell-based; conditions: for corneal cells died, compared to untreated cells: 0.1, 0.25 and 0.5 mg/ml, 24 hour period, FIGURE 10B; for death of corneal cells: FIGURE 10A
Method: In vitro cytotoxicity studies were performed in intact rabbit cornea. Proparacaine (0.5 mM, 1 mM, 5 mM, and 10 mM), tetracaine (0.5 mM, 1 mM, 5 mM, and 10 mM), NT71 (0.1 mg/ml (0.13 mM), 0.25 mg/ml (0.32 mM), and 0.5 mg/ml (0.63 mM)), NT72 (0.1 mg/ml (0.15 mM), 0.25 mg/ml (0.38 mM), and 0.5 mg/ml (0.76 mM)), and 70% MeOH were added to intact rabbit corneas. The percentage of living cells was determined over a 24 hour period using light microscopy and fluorescence. As apparent from FIGURE 10A, tetracaine was cytotoxic to the corneal cells at concentrations as low as 0.5 mM, resulting in the death of about half of the corneal cells observed.

[1] = system: primary rabbit corneal epithelial cells; assay: In vitro scratch assay, cell migration and scratch closure; format: cell-based; conditions: 0.1 mg/ml and 0.5 mg/ml; FIGURES 7-9
Method: The limbus was removed from both eyes of anesthetized rabbits and dissected to include 1.0 to 1.5 mm peripheral cornea and 1.0 to 1.5 mm beyond the anatomical limbus. Each limbus was divided into four small segments. Two segments were used for each 60 mm square plate.
Cultured rabbit corneal epithelial cells were utilized to measure the closure of a scratch made in a confluent epithelial monolayer in the presence of varying doses of the test compounds (0.1 mg/ml to 10 mg/ml). Uniform scratches were made in confluent monolayers of primary rabbit corneal epithelial cells ("in vitro scratch assay").
Individual cell migration assays were performed in the presence of the test compounds and compared with standard doses of tetracaine and proparacaine. Movement of cells from the edge of the scratch (wound) toward the middle of the scratch (wound) were measured over 24 hours. […] Cells in which NT71 and NT72 were added migrated at least 40 µm, alternatively at least 50 µm, alternatively at least 60 µm, alternatively at least 70 µm over 24 hours.
There was very little closure of the wounds in which proparacaine and tetracaine were added. […] In contrast, control cells substantially closed the defect within 24 hours.

rabbit cornea [2] = assay: In vivo superficial keratotomy, administration every 4 hours for 5 days; set-up: species or system rabbits
From the text: Anesthetized rabbits were placed under an operating microscope, a sterile lid speculum placed in the right eye, and a 6.5 mm trephine used to make a partial thickness epithelial cut centered on the pupil. A sterile beaver blade was used to remove the epithelium within the area of demarcation. A single drop of moxifloxacin 0.1% was instilled at the end of the procedure. The speculum was removed and the animal allowed to recover from the systemic anesthesia. The topical agent under investigation was placed in the eye every 4 hours for 5 days. […] The control animals underwent the same surgical procedure. At the end of the procedure, 0.5% proparacaine or vehicle was instilled in the eye every 4 hours.
Fluorescein (1%) was instilled into the eye at times 0, 1, 2, 6, 12, 36, 48, 72, 96, and 120 hours after the procedure and the size of the epithelial defect measured via slit lamp photography. The animals were scored for degree of blinking, tearing, conjunctival injection, anterior chamber inflammation, and intraocular pressure.

rabbit cornea [3] = assay: In vivo superficial keratotomy, administration every 2 hours for 36 hours; set-up: species or system rabbits
Method: In vivo superficial keratotomy experiments were performed on rabbits to access healing effects in an animal model.
Starting with equivalent circular wounds of 6.5 mm diameter (33 mm^2), after 36 hrs of administration every 2 hours of 1 mg/mL NT71(SAR001), NT72 (SAR002), tetracaine or saline (control), the persistent epithelial defect (wound) size was: • Control (saline) 4 mm^2 • Tetracaine 14.4 mm^2 • SAR001 2.8 mm^2 • SAR002 4.8 mm^2

rabbit cornea [4] = assay: Wound healing after excimer laser keratectomy; format: in vivo, rabbits
Method: Anesthetized rabbits were placed under an operating microscope, a sterile lid speculum placed in the right eye, and a 6.5 mm excimer laser ablation of 75 microns centered on the pupil was made using a Ladarvision 4000 excimer laser. A single drop of moxifloxacin 0.1 % was used at the end of the procedure. SAR001 (NT71, 0.1% w/w), SAR002 (NT72, 0.1 % w/w), or NT69 was instilled at the end of the procedure and repeated at 4 hour intervals. Control animals underwent the same surgical procedure. Standard doses of tetracaine (0.5% w/w) or proparacaine (not shown) were instilled at the end of the procedure and at 4 hour intervals thereafter.
Fluorescein (1%) was instilled into the right eye at times 0, 1, 2, 6, 12, 36, 48, 72, 96, and 120 hours after the procedure and the size of the epithelial defect measured via slit lamp photography. Degree of blinking, tearing, conjunctival injection, anterior chamber inflammation, and intraocular pressure were evaluated.

## CC(C)C[C@H](NC(=O)[C@@H](NC(=O)[C@H](Cc1cccc2[nH]ccc12)NC(=O)[C@@H]1CCCN1C(=O)[C@H](N)CCCCN)C(C)(C)C)C(=O)O [NT72] (H-[dK]P[Ala(indol-4-yl)][Tle]L-OH)
Intact rabbit cornea
  corneal cells died, compared to untreated cells: < 20%

## CCCOc1ccc(C(=O)OCCN(CC)CC)cc1N [proparacaine]
Intact rabbit cornea; 5 mM
  death of corneal cells: almost all
[1]
  closure of scratch: did not close
Rabbit cornea [2]; at 96-120 hours, 0.5% proparacaine every 4 hours
  animals with incomplete disappearance of the defect: 40%
Rabbit cornea [2]; every 4 hours for 5 days, neurotensin analogs 0.6 mg/ml, proparacaine 0.5%
  time to disappearance of epithelial defect: 96 to 120 h

## CCCCNc1ccc(C(=O)OCCN(C)C)cc1 [tetracaine]
Intact rabbit cornea; 0.5 mM
  death of corneal cells: about half
Intact rabbit cornea; 1 mM
  death of corneal cells: almost all
[1]
  closure of scratch: did not close
  rate of scratch closure as compared to control: greatest delay in monolayer closure
Rabbit cornea [3]; after 36 hrs, 1 mg/mL every 2 hours, starting wound 33 mm^2
  persistent epithelial defect (wound) size: 14.4 mm^2
Rabbit cornea [3]; after 48 hours
  state of wound: residual epithelial defect was still present
Rabbit cornea [4]; instilled at 4 hour intervals, SAR001, SAR002 0.1% w/w, tetracaine 0.5% w/w, FIGURE 11
  time to disappearance of epithelial defect: 96 to 110 h
Rabbit cornea [4]; tetracaine 0.5% w/w at 4 hour intervals
  animals with incomplete disappearance of the defect: 50%

## CN[C@@H](CCCNC(=N)N)C(=O)N[C@@H](CCN)C(=O)N1CCC[C@H]1C(=O)N[C@@H](Cc1cccc2[nH]ccc12)C(=O)N[C@H](C(=O)N[C@@H](CC(C)C)C(=O)O)C(C)(C)C [NT71] (H-[NMeR][Dab]P[Ala(indol-4-yl)][Tle]L-OH)
Intact rabbit cornea
  corneal cells died, compared to untreated cells: < 20%

— EP2131651B1 (Sarentis Therapeutics, Inc., priority 2007, dated 2013)
